Holding throughout (assay type): cell-based
For assay [1], the system named is MDA−MB−231 cells. Briefly: DCFDA cellular ROS detection assay. The note with it: complexes at IC50, TBHP 20 µM. The procedure: (§1) DCFDA/H2DCFDA-cellular ROS Assay Kit (Abcam, Cambridge, MA, USA) was used to investigate the production of ROS in treated cells, as previously described. MDA−MB−231 or HT29 cells were seeded at a total concentration of 2500 cells/well in 96-well plates and incubated overnight. DMEM was then removed, and cells washed with 1× kit buffer, and stained with 25 µM 2′,7′-dichlorofluorescein diacetate (DCFH-DA) for 45 min. […] After that, the plates were scanned using the Glo-Max®-Multimode microplate reader (Promega Corporation, Alexandra, VIC, Australia) at an excitation/emission of 485/535 nm to detect fluorescence (relative fluorescence units, or RFU) at various time points. A positive control was generated using 20 µM tert-butyl hydroperoxide (TBHP), and the same procedure was applied with DCFDA. Three independent experiments in triplicates were implemented.

Assay [2] relates to HT29 cells. Briefly: DCFDA cellular ROS detection assay. As to conditions: complexes at IC50, TBHP 20 µM. The procedure:
as §1

Assay [3] deals with MDA−MB−231 cells. The assay can be described thus: TMRE mitochondrial membrane potential assay. As to conditions: complexes at IC50, FCCP 20 µM. The procedure:
(§2) Cells were then treated with an IC50 drug concentration for each complex. At 24, 48 or 72 h, DMEM was removed, and cells were washed with PBS. Then, cells were incubated with 1 µM tetramethylrhodamine, ethyl ester (TMRE) stain for 30 min. TMRE was then removed, and cells were washed twice with PBS (0.2% BSA), after which phenol red-free media was added. […] The cells were then stained with TMRE, as described above, and the resulting solution was scanned for fluorescence. Three independent experiments in triplicates were implemented.

Assay [4] deals with HT29 cells. Briefly: TMRE mitochondrial membrane potential assay. The note with it: complexes at IC50, FCCP 20 µM. The procedure: as §2

For the molecule `CC(C)(C)OO` [TBHP, tert-butyl hydroperoxide, reference compound], the ROS production in the assay with MDA−MB−231 cells [1] (MDA−MB−231, 24 h) is 509.88 RFU; in the assay with MDA−MB−231 cells [1] (MDA−MB−231, 48 h) it was 400.11 RFU; with MDA−MB−231 cells [1] (MDA−MB−231, 72 h) it was 388.41 RFU; in the assay with HT29 cells [2] (HT29, 24 h), 544.67 RFU; with HT29 cells [2] (HT29, 48 h) it was 362.55 RFU; with HT29 cells [2] (HT29, 72 h) it was 371.44 RFU.

For `N#CC(C#N)=NNc1ccc(OC(F)(F)F)cc1` [FCCP, carbonyl cyanide 4-(trifluoromethoxy) phenylhydrazone, reference compound], the “MtMp (mitochondrial membrane potential)” value in the assay with MDA−MB−231 cells [3] (MDA−MB−231, 24 h) is given as 215.89 RFU; with MDA−MB−231 cells [3] (MDA−MB−231, 48 h) it was 123.38 RFU; in the assay on MDA−MB−231 cells [3] (MDA−MB−231, 72 h), 99.10 RFU; in the assay on HT29 cells [4] (HT29, 24 h), 184.32 RFU; with HT29 cells [4] (HT29, 48 h), 143.31 RFU; with HT29 cells [4] (HT29, 72 h), 83.58 RFU.

The record behind these values is publication PMC11274883, “Anticancer Effect of Pt^[sequence], Pt^II5MESS, Pt^II56MESS and Their Platinum(IV)-Dihydroxy Derivatives against Triple-Negative Breast Cancer and Cisplatin-Resistant Colorectal Cancer” (Cancers, 2024).
